Here are results for nine compounds from patent US12043602B2, “Fendiline derivatives” (The Board of Regents of the University of Texas System, priority 2019, dated 2024).

Data set [1] has as its target NRAS (Homo sapiens (Human), UniProt P01111). Conditions: background statement; cited from earlier work.
Data set [2] has as its target mGFP-K-RASG12V (Homo sapiens (Human), UniProt P01116, G12V). The data set is described as follows: K-Ras mislocalization assay (confocal microscopy, Manders coefficient). The format is cell-based. On the set-up: key to Emax: Manders coefficient: fraction of mCherry-CAAX co-localizing with GFP-K-Ras. To be noted: MDCK cells; for IC50: 48 h treatment, read-out: IC50 (μM), KRASG12V mislocalization; for Emax: maximal effect, Manders coefficient; for Emax / pEC50: 48 h; for pEC50: batch 4 compounds, title calls it IC50, read-out: EC50. The method, boiled down:
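MDCK cells stably co-expressing mGFP-K-RASG12V and mCherry-CAAX (endomembrane marker) treated with compound or 0.1% DMSO for 48 h, fixed in 4% paraformaldehyde, imaged by confocal microscopy. Mislocalization quantified as the fraction of mCherry-CAAX co-localizing with mGFP-K-RASG12V (Manders coefficient) after 8-bit thresholding.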

The subject of data set [3] is MDCK cells co-expressing GFP-K-RASG12V and mCherry-CAAX.
For data set [4], the target named is HRAS (Homo sapiens (Human), UniProt P01112). To be noted: background statement; cited from earlier work.
The subject of data set [5] is MPanc96 (Mut) pancreatic tumor cells. Nature of the data set: CyQUANT proliferation assay. The class given is cell-based. To be noted: 72 h. On the set-up: key to IC50 proliferation MPanc96 (Mut): NE—Not efficacious. The protocol: (§1) Madine Darby Canine Kidney epithelial cells (MDCK) stably co-expressing mGFP-tagged full length oncogenic mutant K-Ras (GFP—K-RASG12V) or mGFP-LactC2 (peptide probe for phosphatidylserine) and mCherry-tagged to the amino acids 179-189 of H-RasC181S, C184S (mCherry-CAAX, localizes primarily to endomembranes) were grown in DMEM-high glucose/sodium pyruvate/10% FBS. The medium was supplemented with 1× Penicillin/Streptomycin for fluorescence microscopy assays, to avoid any microbial contamination from the test compounds added. KLE and Hec50 cells were maintained in DMEM-F-12 medium supplemented with 10% FBS. Hec-1A and Hec-1B cells were grown in McCoy's 5a medium supplemented with 10% FBS. ESS-1 cells were grown in RPMI 1640 medium supplemented with 20% FBS. MPanc96 cells were grown in DMEM supplemented with 10% FBS, MiaPaCa-2 cells in DMEM supplemented with 10% FBS and 2.5% horse serum and all other cell lines were grown in RPMI 1640 supplemented with 10% FBS. All cancer cell media were supplemented with ×Penicillin/Streptomycin. All cell lines were grown at 37° C. with 5% CO2.
(§2) Cells were seeded in 96-well plates. After 24 h, fresh growth medium supplemented with 0.1% vehicle (DMSO), or various concentrations of drugs was added and cells were grown for 72 h. Cell numbers were quantified using the CyQUANT® Cell Proliferation Assay Kit (Molecular Probes, Life Technologies), according to the manufacturer's protocol. Fluorescence measurement was used as a measure of live cell number.

Data set [6] deals with MDCK cells co-expressing GFP-K-RASG12V and mCherry-CAAX. The data set is described as follows: Cytotoxicity in mislocalization screen (death of all cells in well). Conditions: drug caused death of all cells in well at 30 μM.
The subject of data set [7] is MOH (Mut) pancreatic tumor cells. The data set is described as follows: CyQUANT proliferation assay. The class given is cell-based. Further details: key to IC50 proliferation MOH (Mut): NE—Not efficacious. Conditions: 72 h. The method, then: as §1, §2
Data set [8] concerns MiaPaCa-2 (Mut) pancreatic tumor cells. The data set is described as follows: CyQUANT proliferation assay. The class given is cell-based. Further details: key to IC50 proliferation MiaPaCa-2 (Mut): NE—Not efficacious. Conditions: 72 h. The protocol: as §1, §2
The subject of data set [9] is ESS-1 (WT) endometrial tumor cells. Nature of the data set: CyQUANT proliferation assay. The class given is cell-based. On the set-up: key: NE—Not efficacious. Conditions: 72 h. The protocol: as §1, §2
The subject of data set [10] is NCI H1975 (WT) lung tumor cells. Nature of the data set: CyQUANT proliferation assay. The class given is cell-based. Conditions: 72 h. On the set-up: key to IC50 proliferation NCI H1975 (WT): NE—Not efficacious. The method, then: as §1, §2
Data set [11] relates to Ishikawa (WT) endometrial tumor cells. Nature of the data set: CyQUANT proliferation assay. The class given is cell-based. Further details: key to IC50 proliferation Ishikawa (WT): NE—Not efficacious. To be noted: 72 h. The method, then:
as §1, §2

For data set [12], the system named is NCI H522 (WT) lung tumor cells. Nature of the data set: CyQUANT proliferation assay. The class given is cell-based. On the set-up: key to IC50 proliferation NCI H522 (WT): NE—Not efficacious. To be noted: 72 h. The protocol:
as §1, §2

For data set [13], the system named is MiaPaCa-2 tumors. Nature of the data set: In vivo tumor growth assay (xenograft). Further details: species or system nu/nu mice. Conditions: MiaPaCa2 xenografts in nude mice. The method, then:
In Vivo Tumor Growth Assay. All animal studies were performed under an Institutional Animal Care and Use Committee (IACUC) approved animal protocol (AWC-15-0101), in accordance with the National Institutes of Health Guide for the Care and Use of Laboratory Animals. Early passage MiaPaCa-2 cells were harvested, and 2×10^6 cells were implanted into the right flanks of female nu/nu mice. The animals were randomized into control and treated groups (10 mice per group). Tumor volume (V) was measured with an external caliper every 3-4 days and it was calculated as V=0.52 (length×width2). Compound treatment was initiated when the tumor sizes reached 100 mm3. Compounds (12.5 mg/kg) were injected daily intraperitoneally for 5 days, with 2 days of no treatment in between. All treatments were continued until any of the subcutaneous tumors reached 1500 mm3 in volume, when all the animals were sacrificed, and the tumors removed.
Early passage BxPC-3 or MIAPaCa-2 cells were harvested, and 2-3X106 cells were implanted into the right flanks of nu/nu mice. The animals were randomized into control and treated groups (10 mice per group). Tumor volume (V) was measured with an external caliper every 3-4 days and it was calculated as V=0.52 (length×width2). Drug treatment was initiated 4 days after tumor implantation. Drugs were injected daily intraperitoneally (at doses indicated) for 5 days, with 2 days of no treatment in between. All treatments were continued until any of the subcutaneous tumors reached 1500 mm3 in volume or for 6 weeks (whichever was first), when all the animals were sacrificed and the tumors removed.
Next the effect of the selected PMLIs on the growth of oncogenic KRAS expressing MiaPaCa-2 cells implanted subcutaneously into the flanks of nu/nu immunosuppressed mice was determined. […] The animals were randomized into control and PMLI-treated groups (10 mice per group). Treatment was initiated when the tumors reached a mean volume of 100 mm^3. PMLIs were tested at 12.5, 7.5, 5, 2.5 and 1 mg/kg doses, administered once daily intraperitoneally for 5 days, with 2 days of no treatment in between for the duration of the experiment. […] There was no observed toxicity detected in any of the compound-treated groups during the experiment and, accordingly, there was no significant difference in the body weight of the animals in the different groups.

In data set [14] the test system is KLE (WT) endometrial tumor cells. The data set is described as follows: CyQUANT proliferation assay. The format is cell-based. Further details: key: NE—Not efficacious. Conditions: 72 h. The protocol:
as §1, §2

The subject of data set [15] is BxPC-3 (WT) pancreatic tumor cells. Nature of the data set: CyQUANT proliferation assay. The format is cell-based. Further details: key to IC50 proliferation BxPC-3 (WT): NE—Not efficacious. To be noted: 72 h. The method, then:
as §1, §2

pEC50: −log10 of the molar value. Read-outs that look alike come from different tables or passages of the source.

Consider `C[C@@H](NCCC(c1ccccc1)c1ccccc1)c1ccccc1` [AVA08, R-Fendiline, reference compound], for which, in data set [1], the “effect on the PM localization of NRAS” value is recorded as “no effect”. Besides, in data set [2], the IC50 was 5.59 µM and the Emax came to 0.811. Moreover, in data set [3], the “Cytotoxic at 30 μM” value is listed as “Yes”. Moreover, the “effect on the PM localization of HRAS” value in [4] is listed as “no effect”.
As to `COc1ccc([C@@H](C)N(CC=C(c2ccccc2)c2ccccc2)C(=O)NC(C)(C)C)cc1` [NY0428, (R)-3-tert-butyl-1-(3,3-diphenylallyl)-1-(1-(4-methoxyphenyl)ethyl)urea], the “IC50 proliferation MPanc96 (Mut)” value in data set [5] is reported as “NE”. The “Cytotoxic at 30 μM” value in data set [6] is “No”. Besides, in data set [2], the IC50 turned out to be 0.29 µM and the Emax is given as 0.891. Also, in data set [7], the “IC50 proliferation MOH (Mut)” value is “NE”. Further, the “IC50 proliferation MiaPaCa-2 (Mut)” value in data set [8] is listed as “NE”.
With `COc1ccc([C@@H](C)N(CC=C(c2ccccc2)c2ccccc2)CCN2CC2)cc1` [NY0438, (R)-N-(2-(aziridin-1-yl)ethyl)-N-(1-(4-methoxyphenyl)ethyl)-3,3-diphenylprop-2-en-1-amine], in data set [2], the IC50 amounted to 5.1 µM and the Emax came to 0.754. Besides, the “Cytotoxic at 30 μM” value in data set [3] is recorded as “No”.
For `CN1CCN(CCN(CC=C(c2ccccc2)c2ccccc2)C2(c3ccccc3)CC2)CC1` [NY0443, N-(3,3-diphenylallyl)-N-(2-(4-methylpiperazin-1-yl)ethyl)-1-phenylcyclopropanamine], in data set [9], the “IC50 proliferation ESS-1 (WT)” value is recorded as “NE”. In data set [10], the “IC50 proliferation NCI H1975 (WT)” value is reported as “NE”. Also, the “IC50 proliferation Ishikawa (WT)” value in data set [11] is recorded as “NE”. The “IC50 proliferation NCI H522 (WT)” value in data set [12] is “NE”. The “Cytotoxic at 30 μM” value in data set [6] is on record as “Yes”. The IC50 in [2] was determined as 0.91 µM.
In the case of `C(CN(CCN1CCCC1)C1(c2ccccc2)CC1)=C(c1ccccc1)c1ccccc1` [NY0444, N-(3,3-diphenylallyl)-1-phenyl-N-(2-(pyrrolidin-1-yl)ethyl)cyclopropanamine], the “IC50 proliferation ESS-1 (WT)” value in data set [9] is reported as “NE”. The “IC50 proliferation Ishikawa (WT)” value in data set [11] was “NE”. Also, the “Cytotoxic at 30 μM” value in data set [6] was “Yes”. Also, in data set [2], the IC50 was 0.73 µM and the Emax is 0.732.
`C[C@H](c1ccc(F)cc1)N(CC=C(c1ccccc1)c1ccccc1)CCN1CCCC1` [NY0506, (R)-N-(1-(4-fluorophenyl)ethyl)-3,3-diphenyl-N-(2-(pyrrolidin-1-yl)ethyl)prop-2-en-1-amine]: the “Cytotoxic at 30 μM” value in data set [6] is recorded as “Yes”. For the same compound, in data set [2], the pEC50 was 6.28 and the Emax is 0.808. The “minimum effective dose on tumor growth relative to fendiline” value in data set [13] is “more potent than fendiline”.
With `C[C@H](c1ccccc1)N(CC=C(c1ccccc1)c1ccccc1)CCN1CCN(C)CC1` [NY0513, (R)-N-(2-(4-methylpiperazin-1-yl)ethyl)-3,3-diphenyl-N-(1-phenylethyl)prop-2-en-1-amine], the “IC50 proliferation KLE (WT)” value in data set [14] is listed as “NE”. Moreover, the “Cytotoxic at 30 μM” value in data set [6] is “Yes”. Further, in [2], the IC50 is 0.6 µM, the pEC50 was 6.19 and the Emax was 0.786. In [2] (listed as 15d), the Emax is listed as 0.79 ± 0.01.
Turning to `C(CNC1(c2ccccc2)CC1)=C(c1ccccc1)c1ccccc1` [NY040402, N-(3,3-diphenylallyl)-1-phenylcyclopropanamine], the “IC50 proliferation MPanc96 (Mut)” value in data set [5] is “NE”. For the same compound, the “IC50 proliferation BxPC-3 (WT)” value in [15] was “NE”. Moreover, in [6], the “Cytotoxic at 30 μM” value was “No”. Besides, in [2], the IC50 turned out to be 0.2 µM and the Emax came to 0.835. Besides, in [7], the “IC50 proliferation MOH (Mut)” value is reported as “NE”. Moreover, in data set [8], the “IC50 proliferation MiaPaCa-2 (Mut)” value is given as “NE”.
As to `COc1ccc(-c2cc(C(=O)N(CCN3CCCC3)[C@H](C)c3ccc(F)cc3)no2)cc1` [PW323, (R)-N-(1-(4-Fluorophenyl)ethyl)-5-(4-methoxyphenyl)-N-(2-(pyrrolidin-1-yl)ethyl)isoxazole-3-carboxamide], the “Cytotoxic at 30 μM” value in data set [6] is given as “Yes”. Also, in data set [2], the IC50 is 0.05 µM and the Emax was determined as 0.852. Further, the “minimum effective dose on tumor growth relative to fendiline” value in data set [13] is “more potent than fendiline”.

One may read the IC50 as the point on the concentration scale where inhibition reaches its midpoint. What is called pEC50 is −log10 of the EC50, conventionally taken in molar units.
